“And” between values parts separate entries of the source, which are not always exact repeats. Identical values can stand only once.
How the values were obtained:
[1] = system: Phakopsora pachyrhizi; test: In vivo preventive test on Phakopsora pachyrhizi (soybean rust); conditions: for protection: dose of 10 ppm of active ingredient
Procedure: In Vivo Preventive Test on Phakopsora pachyrhizi (Soybean Rust)
Solvent: 24.5 parts by weight of acetone • 24.5 parts by weight of N,N-dimethylacetamide
Emulsifier: 1 part by weight of alkylaryl polyglycol ether
To produce a suitable preparation of active compound, 1 part by weight of active compound is mixed with the stated amounts of solvent and emulsifier, and the concentrate is diluted with water to the desired concentration.
To test for preventive activity, young plants are sprayed with the preparation of active compound at the stated rate of application. After the spray coating has dried on, the plants are inoculated with an aqueous spore suspension of the causal agent of soybean rust (Phakopsora pachyrhizi) and stay for 24 h without light in an incubation cabinet at approximately 24° C. and a relative atmospheric humidity of 95%.
The plants remain in the incubation cabinet at approximately 24° C. and a relative atmospheric humidity of approximately 80% and a day/night interval of 12 h.
The test is evaluated 7 days after the inoculation. 0% means an efficacy which corresponds to that of the untreated control, while an efficacy of 100% means that no disease is observed.

[2] = log P by HPLC on a reversed-phase column (C 18), EEC Directive 79/831 Annex V.A8; assay type: physicochemical; conditions: for logP: 40° C., linear gradient 10% to 90% acetonitrile
Method in brief: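 Reversed-phase C18 HPLC at 40° C, 0.1% aqueous formic acid/acetonitrile gradient from 10% to 90% acetonitrile. log P derived from retention times by linear interpolation between unbranched alkan-2-ones (3–16 carbons) of known log P.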

[3] = system: Uromyces appendiculatus; test: In vivo preventive test on Uromyces appendiculatus (bean rust); conditions: for protection: dose of 100 and 10 ppm of active ingredient
Procedure: In Vivo Preventive Test on Uromyces appendiculatus (Bean Rust)
Solvent: 5% by volume of Dimethyl sulfoxide • 10% by volume of Acetone
Emulsifier: 1 μL of Tween® 80 per mg of active ingredient
The active ingredients are made soluble and homogenized in a mixture of Dimethyl sulfoxide/Acetone/Tween® 80 and then diluted in water to the desired concentration.
The young plants of bean are treated by spraying the active ingredient prepared as described above. Control plants are treated only with an aqueous solution of Acetone/Dimethyl sulfoxide/Tween® 80.
After 24 hours, the plants are contaminated by spraying the leaves with an aqueous suspension of Uromyces appendiculatus spores. The contaminated bean plants are incubated for 24 hours at 20° C. and at 100% relative humidity and then for 10 days at 20° C. and at 70-80% relative humidity.
The test is evaluated 11 days after the inoculation. 0% means an efficacy which corresponds to that of the control plants while an efficacy of 100% means that no disease is observed.

[4] = HPLC, reversed-phase column (C 18), 0.1% aqueous formic acid and acetonitrile
[5] = HPLC on reversed-phase column (C 18), 0.1% aqueous formic acid and acetonitrile
[6] = reversed-phase HPLC column (C 18), Table 3 (amines of formula II), HPLC C 18, 40° C., 0.1% aqueous formic acid and acetonitrile
[7] = reversed-phase HPLC column (C 18), Table 4 (aldehydes of formula IV), HPLC C 18, 40° C., 0.1% aqueous formic acid and acetonitrile

With `Cc1ccc(C(F)(F)F)c(CN(C(=O)c2c(C(F)F)nn(C)c2F)C2CC2)c1` [12 from WO-2010/130767, N-cyclopropyl-3-(difluoromethyl)-5-fluoro-1-methyl-N-[5-methyl-2-(trifluoromethyl)benzyl]-1H-pyrazole-4-carboxamide, reference compound] as the molecule, how does the Efficacy ([1]; Table C1, dose 10 ppm) read?
The Efficacy was 0%.

And the protection [1]?
Its protection is “no protection”.

With `Cn1nc(C(F)F)c(C(=O)N(Cc2cc(F)ccc2C2(C(F)F)CC2)C2CC2)c1F` [I.151, N-cyclopropyl-3-(difluoromethyl)-N-{2-[1-(difluoromethyl)-cyclopropyl]-5-fluorobenzyl}-5-fluoro-1-methyl-1H-pyrazole-4-carboxamide] as the molecule, how does the chromatographic logP ([2]; reversed-phase HPLC column (C 18), preparation examples) read?
The chromatographic logP was 3.39.

And the Efficacy ([3]; Table B1, dose 10 ppm)?
The Efficacy was 100%.

And the Efficacy ([3]; Table B1, dose 100 ppm)?
Its Efficacy is 100%.

And the protection [3]?
Its protection is “total protection”.

For `CCC1(c2cc(C)c(F)cc2CN(C(=O)c2c(C(F)F)nn(C)c2F)C2CC2)CC1` [I.106], which logP [2, 4] is on record?
The logP was 4.67.

What about the Efficacy ([1]; Table C3, dose 10 ppm) of the same molecule?
The Efficacy was 100% and 98%.

Which results are given for `Cc1ccc(C2(C)CC2)c(CN(C(=O)c2c(C(F)F)nn(C)c2F)C2CC2)c1` [I.071]?
logP [2, 4]: 4.19; Efficacy ([1]; Table C1, dose 10 ppm): 99%; protection [1]: at least 90%

Which Efficacy ([1]; Table C3, dose 10 ppm) does the source give for `Cn1nc(C(F)F)c(C(=O)N(Cc2cc(F)ccc2C2CC2)C2CC2)c1F` [123 from WO-2010/130767, N-cyclopropyl-N-(2-cyclopropyl-5-fluorobenzyl)-3-(difluoromethyl)-5-fluoro-1-methyl-1H-pyrazole-4-carboxamide, reference compound] here?
Its Efficacy is 0%.

What about the protection [1] of the same molecule?
Its protection is “no protection”.

For `Cn1nc(C(F)F)c(C(=O)N(Cc2cc(Cl)ccc2C2CC2)C2CC2)c1F` [41 from WO-2010/130767, N-(5-chloro-2-cyclopropylbenzyl)-N-cyclopropyl-3-(difluoromethyl)-5-fluoro-1-methyl-1H-pyrazole-4-carboxamide, reference compound], which Efficacy ([1]; Table C2, dose 10 ppm) is on record?
The Efficacy was 0%.

And the protection [1]?
The protection was “no protection”.

For `CC1(c2c(Cl)cccc2CBr)CC1` [V.01, 1-(bromomethyl)-3-chloro-2-(1-methylcyclopropyl)benzene], which chromatographic logP ([2]; reversed-phase HPLC column (C 18), Table 5 (formula V), HPLC C 18, 40° C., 0.1% aqueous formic acid and acetonitrile) is on record?
The chromatographic logP was 4.86.

Which logP [2, 5] does the source give for `Cn1nc(C(F)F)c(C(=O)N(Cc2c(C3(C)CC3(Cl)Cl)ccc(Cl)c2Cl)C2CC2)c1F` (racemic) [I.173] here?
The logP was 4.71.

With `Cc1ccc(C2(C)CC2)c(CN(C(=O)c2c(C(F)F)nn(C)c2Cl)C2(C)CC2)c1` [I.077] as the molecule, how does the logP [2, 4] read?
Its logP is 4.63.

With `Cn1nc(C(F)F)c(C(=O)N(Cc2ccc(F)cc2C2(C(F)F)CC2)C2CC2)c1Cl` [I.145] as the molecule, how does the logP [2, 4] read?
Its logP is 3.55.

Which chromatographic logP [2, 6] does the source give for `COc1cc(CNC2CC2)c(C2(C)CC2)cc1OC` [II.08, N-[4,5-dimethoxy-2-(1-methylcyclopropyl)benzyl]cyclopropanamine] here?
Its chromatographic logP is 1.26.

Which chromatographic logP [2, 7] does the source give for `CCC1(c2ccc(C)cc2C=O)CC1` [IV.18, 2-(1-ethylcyclopropyl)-5-methylbenzaldehyde] here?
The chromatographic logP was 4.29.

With `Cn1nc(C(F)F)c(C(=S)N(Cc2cc(F)ccc2C2(C)CC2)C2CC2)c1Cl` [I.069] as the molecule, how does the logP [2, 4] read?
Its logP is 4.64.

With `O=Cc1cc(Cl)ccc1C1(C(F)F)CC1` [IV.20, 5-chloro-2-[1-(difluoromethyl)cyclopropyl]benzaldehyde] as the molecule, how does the chromatographic logP [2, 7] read?
The chromatographic logP was 3.04.

Which chromatographic logP [2, 6] does the source give for `FC(F)C1(c2ccc(Br)cc2CNC2CC2)CC1` [II.37, N-{5-bromo-2-[1-(difluoromethyl)cyclopropyl]benzyl}cyclopropanamine] here?
The chromatographic logP was 1.3.

Which logP [2, 4] does the source give for `CCCC1(c2ccc(C)cc2CN(C(=O)c2c(C(F)F)nn(C)c2F)C2CC2)CC1` [I.130] here?
Its logP is 5.03.

With `Cn1nc(C(F)F)c(C(=O)N(Cc2cc(F)ccc2C2(C(F)F)CC2)C2CC2)c1Cl` [I.152] as the molecule, how does the logP [2, 4] read?
The logP was 3.53.

With `Cn1nc(C(F)F)c(C(=O)N(Cc2cc(Cl)c(Cl)cc2C2(C)CC2)C2CC2)c1Cl` [I.181] as the molecule, how does the logP [2, 5] read?
Its logP is 4.93.

With `FC(F)(F)C1(c2ccccc2CNC2CC2)CC1` [II.45, N-{2-[1-(trifluoromethyl)cyclopropyl]benzyl}cyclopropanamine] as the molecule, how does the chromatographic logP [2, 6] read?
Its chromatographic logP is 1.25.

For `Cc1ccc(C2(C#C[Si](C)(C)C)CC2)c(CNC2CC2)c1` [II.19, N-(5-methyl-2-{1-[(trimethylsilyl)ethynyl]cyclopropyl}benzyl)cyclopropanamine], which chromatographic logP ([2]; Table 3 (amines of formula II), HPLC C 18, 40° C., 0.1% aqueous formic acid and acetonitrile) is on record?
The chromatographic logP was 2.05.

Which logP [2, 4] does the source give for `COC1(c2ccc(C3=CCOCC3)cc2CN(C(=O)c2c(C(F)F)nn(C)c2F)C2CC2)CC1` [I.124] here?
The logP was 3.55.

With `Cc1ccc(C2(C3CC3)CC2)c(CNC2CC2)c1` [II.35, N-{2-[1,1′-bi(cyclopropyl)-1-yl]-5-methylbenzyl}cyclopropanamine] as the molecule, how does the chromatographic logP [2, 6] read?
Its chromatographic logP is 1.67.

Which logP [2, 4] does the source give for `CCC1(c2ccc(Cl)cc2CN(C(=O)c2c(C(F)F)nn(C)c2Cl)C2CC2)CC1` [I.111] here?
Its logP is 4.77.

Which logP [2, 5] does the source give for `COCC1(c2ccc(C)cc2CN(C(=O)c2c(C(F)F)nn(C)c2Cl)C2CC2)CC1` [I.183] here?
Its logP is 3.68.

With `Cn1nc(C(F)F)c(C(=O)N(Cc2cccc(Cl)c2C2(C)CC2)C2CC2)c1Cl` [I.006] as the molecule, how does the logP [2, 4] read?
Its logP is 4.44.

With `Cc1ccc(C2(CC(C)C)CC2)c(CN(C(=O)c2c(C(F)F)nn(C)c2Cl)C2CC2)c1` [I.160] as the molecule, how does the logP [2, 5] read?
Its logP is 5.54.

For `Cc1ccc(C2(CC(C)C)CC2)c(CNC2CC2)c1` [II.43, N-[2-(1-isobutylcyclopropyl)-5-methylbenzyl]cyclopropanamine], which chromatographic logP [2, 6] is on record?
The chromatographic logP was 2.15.

With `Cn1nc(C(F)F)c(C(=S)N(Cc2cc(F)c(F)cc2C2(C)CC2)C2CC2)c1Cl` [I.050] as the molecule, how does the logP [2, 4] read?
The logP was 4.90.

For `Cc1ccc(C2(C)CC2)c(CN(C(=S)c2c(C(F)F)nn(C)c2F)C2CC2)c1` [I.073], which logP [2, 4] is on record?
The logP was 4.80.

With `Cn1nc(C(F)F)c(C(=O)N(Cc2cc(-c3csc4ccccc34)ccc2C2(C)CC2)C2CC2)c1F` [I.081] as the molecule, how does the logP [2, 4] read?
Its logP is 5.48.

With `CCC1(c2cc(C(F)(F)F)ccc2C=O)CC1` [IV.17, 2-(1-ethylcyclopropyl)-4-(trifluoromethyl)benzaldehyde] as the molecule, how does the chromatographic logP [2, 7] read?
Its chromatographic logP is 4.29.

With `CCC1(c2ccccc2CNC2CC2)CC1` [II.23, N-[2-(1-ethylcyclopropyl)benzyl]cyclopropanamine] as the molecule, how does the chromatographic logP [2, 6] read?
Its chromatographic logP is 1.52.

Which logP [2, 4] does the source give for `C#CC1(c2ccc(Cl)cc2CN(C(=O)c2c(C(F)F)nn(C)c2F)C2CC2)CC1` [I.090] here?
Its logP is 3.73.

For `Cn1nc(C(F)F)c(C(=O)N(Cc2c(C3CC3)ccc(F)c2F)C2CC2)c1F` [54 from WO-2010/130767, N-cyclopropyl-N-(6-cyclopropyl-2,3-difluorobenzyl)-3-(difluoromethyl)-5-fluoro-1-methyl-1H-pyrazole-4-carboxamide, reference compound], which Efficacy ([3]; Table B1, dose 10 ppm) is on record?
Its Efficacy is 29%.

What about the Efficacy ([3]; Table B1, dose 100 ppm) of the same molecule?
Its Efficacy is 100%.

What about the protection [3] of the same molecule?
Its protection is “total to poor (less than 30%) protection”.

Which logP [2, 4] does the source give for `Cn1nc(C(F)F)c(C(=O)N(Cc2ccc(-c3ccncc3)cc2C2(C)CC2)C2CC2)c1F` [I.045] here?
The logP was 2.00.

For `Cn1nc(C(F)F)c(C(=O)N(Cc2cc(Cl)ccc2C2(C(F)F)CC2)C2CC2)c1F` [I.149], which logP [2, 4] is on record?
Its logP is 3.70.

Which logP [2, 4] does the source give for `Cn1nc(C(F)F)c(C(=O)N(Cc2cc(Cl)ccc2C2(C#N)CC2)C2CC2)c1Cl` [I.095] here?
Its logP is 3.31.

Which logP [2, 5] does the source give for `COCC1(c2ccc(C)cc2CN(C(=O)c2c(C(F)F)nn(C)c2F)C2CC2)CC1` [I.182] here?
Its logP is 3.52.

With `Cc1ccc(C2(C)CC2)c(CN(C(=O)c2c(C(F)F)nn(C)c2Cl)C2CC2)c1` [I.072] as the molecule, how does the logP [2, 4] read?
The logP was 4.36.

Which chromatographic logP [2, 6] does the source give for `CCC1(c2ccc(C(F)(F)F)cc2CNC2CC2)CC1` [II.28, N-[2-(1-ethylcyclopropyl)-5-(trifluoromethyl)benzyl]cyclopropanamine] here?
Its chromatographic logP is 1.82.

With `Cn1nc(C(F)F)c(C(=O)N(Cc2cccc(Cl)c2C2(C)CC2)C2CC2)c1F` [I.005] as the molecule, how does the logP [2, 4] read?
The logP was 4.30.

Which logP [2, 4] does the source give for `Cn1nc(C(F)F)c(C(=O)N(Cc2ccc(C3CC3)cc2C2(C)CC2)C2CC2)c1F` [I.020] here?
The logP was 4.51.

For `Cc1ccc(C2(C(F)F)CC2)c(CN(C(=O)c2c(C(F)F)nn(C)c2Cl)C2CC2)c1` [I.154], which logP [2, 4] is on record?
Its logP is 3.76.

Which logP [2, 4] does the source give for `Cn1nc(C(F)F)c(C(=O)N(Cc2ccc(F)cc2C2(C)CC2)C2CC2)c1Cl` [I.022] here?
Its logP is 4.06.

Which chromatographic logP [2, 6] does the source give for `CCC1(c2cccc(F)c2CNC2CC2)CC1` [II.31, N-[2-(1-ethylcyclopropyl)-6-fluorobenzyl]cyclopropanamine] here?
The chromatographic logP was 1.14.

Which chromatographic logP [2, 7] does the source give for `CC1(c2ccc(Cl)cc2C=O)CC1` [IV.10, 5-chloro-2-(1-methylcyclopropyl)benzaldehyde] here?
The chromatographic logP was 3.76.

From patent US10070645B2, “N-cycloalkyl-N-{[2-(1-substitutedcycloalkyl)phenyl]methylene}-(thio)carboxamide derivatives” (BAYER CROPSCIENCE AKTIENGESELLSCHAFT, priority 2013, dated 2018)
